The values below come from patent publication US9278134B2, “Dual functioning ionic liquids and salts thereof” (priority 2008, dated 2016).

A short description of data set [1]: Thermocleavage of ionic liquid immobilized fragrance by TGA. The class given is physicochemical. The settings on record: TGA (FIG. 6).
Data set [2] can be described thus: Thermal decomposition onset (T5% onset) by TGA.
Data set [3] can be described thus: Viscosity of propantheline p-toluenesulfonate (PtTos)/water composites. The settings on record: * instrument limit. The class given is physicochemical. An excerpt:
(§1) Viscosity, conductivity and ΔW values for various propantheline p-toluenesulfonate (PtTos)/water composites.

The nature of data set [4]: Conductivity of propantheline p-toluenesulfonate (PtTos)/water composites. It counts as physicochemical.
Source text: as §1

Data set [5] can be described thus: Walden plot: ΔW / degree of ionicity. It counts as physicochemical. The settings on record: for degree of ionicity (ionized): estimated from the Walden plot (FIG. 7). An excerpt:
Many examples of liquid organic salts are far from fully ionized. Instead, they form ion pairs and aggregates of ions in the liquid state and are better described as Liquid Ion Pairs than “Ionic Liquids”. The distinction between these states can be made on the basis of the behavior of the transport property data when plotted in a Walden plot. The Walden plot is a graph of log equivalent conductivity (corrected for molar volume) vs. log fluidity and thus may be used to estimate the degree of association cations and anions (as correlated motion of cation and anion clusters). […] Liquid Ion Pairs lie beyond this region, i.e., more than one order of magnitude away from the Ideal line. Such liquid salts are less than 10% ionized. Examples of such liquid salts of therapeutic ions include propanthaline tosylate which is about 1% ionized, as estimated from the Walden plot (FIG. 7).
With addition of 25 weight % water, ΔW value decreased. This is true for all of the propantheline p-toluenesulfonate/water systems studied.

With `CC(C)=CCC/C(C)=C/COC(=O)Cn1cc[n+](C)c1` [Example 44, (E)-1-(2-(3,7-dimethylocta-2,6-dienyloxy)-2-oxoethyl)-3-methyl-1H-imidazol-3-ium Docusate], the “Thermocleavage, first decomposition step (release of geraniol)” value in data set [1] is “Mass loss of the first decomposition step obtained corresponds to mass percentage of Geraniol [1] in the prodrug [4]”. In data set [2], this molecule showed a T5%onset of 170 °C.

As for `CC(C)[N+](C)(CCOC(=O)C1c2ccccc2Oc2ccccc21)C(C)C` [PtTos pure, Propantheline p-Toluenesulfonate], the “Viscosity (mPa · s) ± 1%” value in data set [3] is listed as >2000* mPa · s. Also, the “Conductivity (S cm^−1)” value in data set [4] is given as 5.41 × 10^−7 S cm^−1. Also, in data set [5] (FIG. 7), the “distance below the reference line in the Walden plot” value came to 2 log units. In data set [5] (Walden plot, PtTos/water composites), the “ΔW (distance form the ideal line)” value is on record as 2.0. In addition, the “degree of ionicity (ionized)” value in data set [5] was “approximately 1%”; in data set [5] (listed as propanthaline tosylate), “about 1%”. `CC(C)=CCC/C(C)=C/COC(=O)CCC(=O)O` [Example 46, 2-Hydroxy-N,N,N-trimethylethanaminium (E)-4-(3,7-dimethylocta-2,6-dienyloxy)-4-oxobutanoate]: in data set [2], the T5%onset came to 170 °C.

As for `CCCC[PH](CCCC)(CCCC)CC(=O)Oc1ccc(NC(C)=O)cc1` [Example 38, (2-(4-acetamidophenoxy)-2-oxoethyl)tributylphosphonium Docusate], the T5%onset in data set [2] is 227 °C. On the same count and under the same terms, with `CC(=O)Nc1ccc(OC(=O)Cn2cc[n+](C)c2)cc1` [Example 31, 1-(2-(4-acetamidophenoxy)-2-oxoethyl)-3-methyl-1H-imidazol-3-ium Chloride] the figure was 200 °C; with Caffeine Salicylate [Example 13], 111 °C. `CCN(CC)CC(=O)Nc1c(C)cccc1C.COc1cccc(C2(O)CCCCC2CN(C)C)c1.O=C(O)c1ccccc1O` (stereo not shown) [Example 26, Tramadolium-lidocaine Salicylate] displayed a T5%onset in data set [2] of 181 °C. In data set [2], Benzethonium Salicylate [Example 53] displayed a T5%onset of 180 °C.

Regarding `CCN(CC)CCNC(=O)c1ccc(N)cc1.O=C(O)c1ccccc1O` [Example 61, Procainamide Salicylate], in data set [2], the T5%onset was found to be 199 °C. As for `CN[C@@H](C)[C@H](O)c1ccccc1.O=C(O)c1ccccc1O` [Eph:Sal 1:1, Ephedrinium Salicylate], the T5%onset in data set [2] stood at 161 °C.

Take `CC(=O)Nc1ccc(OC(=O)C[N+]2(C)CCCC2)cc1.CC(O)C(=O)O` [Example 40, 1-(2-(4-acetamidophenoxy)-2-oxoethyl)-1-methylpyrrolidinium Lactate]: the T5%onset in data set [2] amounted to 166 °C.

With Choline Docusate [Example 67], in data set [2], the T5%onset is 189 °C. Lidocaine Salicylates [Lid:Sal 1:1.5]: the “Tonset 5%” value in data set [2] (TGA/DSC, 25° C. to 600° C. with 5° C./min under nitrogen, lidocaine salicylate co-ionic liquids) amounted to 142 °C.
